What was measured:
[1] = Tissue distribution (QWBA) of [^14C]-estetrol after a single oral dose in non-pigmented rats; assay type: in vivo, rat; conditions: for Concentration of radioactivity, Skin: Non-pigmented / Tissue:Blood ratio, Skin: Non-pigmented: non-pigmented rats, single oral 15 mg/kg
Procedure: Times for analysis were: 0.5, 1, 2, 5, 8, 24 and 48 hours
Distribution of radioactivity in tissues was determined and quantified using the Fuji FLA-5100 fluorescent image analyser and associated Tina and SeeScan software. Tissue concentrations of radioactivity were determined using calibrated autoradiographic microscales produced by GE Healthcare. A standard curve was produced using the microscales from which tissue concentrations of radioactivity were determined (nCi/g). These values were then converted into pg equivalents/g using the specific activity of the dose formulation.
Radioactivity concentrations are also reported as […] equivalents/g.

[2] = Tissue distribution (QWBA) of [^14C]-estetrol after a single oral dose in partially pigmented rats; conditions: for Concentration of radioactivity, Skin: Non-pigmented / Concentration of radioactivity, Skin: Pigmented / Tissue:Blood ratio, Skin: Non-pigmented / Tissue:Blood ratio, Skin: Pigmented / Total amount of radioactivity, Skin (non-pigmented) / Total amount of radioactivity, Skin (pigmented): single oral 15 mg/kg
Procedure: Tissue distribution was determined in female rats (partially pigmented and non-pigmented) using [^14C]-estetrol.
A group of six female Lister Hooded rats each received a single oral dose of [^14C]-estetrol. At each selected time (see below) one animal was killed (by overdose of CO2) followed by immediate snap freezing in hexane/solid CO2. The carcasses were retained for examination of the tissue distribution of radioactivity using the technique of quantitative whole body autoradiography (QWBA).
Times for analysis were: (0.5, 8, and 24 hours, 7, 14 and 35 days)
Frozen carcasses were subjected to whole-body autoradiography.
Where concentrations are reported, radioactivity was assumed to be associated with [^14C]-estetrol or any metabolic products derived from [^14C]-estetrol. The specific activities of the dosed test compounds were used for the calculation of concentrations in all cases. Recoveries of radioactivity are reported as percentage of administered radioactivity (% dose). Radioactivity concentrations are also reported as pg equivalents/g.

[3] = Tissue distribution (QWBA) of [^14C]-estetrol after a single oral dose in non-pigmented rats; assay type: in vivo; conditions: single oral 15 mg/kg, 3 hour (Rat 08F)
[4] = partially pigmented rats, 0.5 hours
[5] = partially pigmented rats, 8 hours
[6] = partially pigmented rats, 24 hours
[7] = partially pigmented rats, 7 days
[8] = partially pigmented rats, 14 days
[9] = partially pigmented rats, 35 days

## [^14C]-estetrol
[1]; female non-pigmented rats, single oral dose, 0.5 hours
  concentration of radioactivity, liver (greatest concentration): 12.5 microgram equivalents/gram
[1]; 0.5 hours
  Concentration of radioactivity, Skin: Non-pigmented: 2.59 microgram equivalents/gram
  Tissue:Blood ratio, Skin: Non-pigmented: 1.05
[1]; 1 hour
  Concentration of radioactivity, Skin: Non-pigmented: 0.771 microgram equivalents/gram
[1]; 2 hours
  Concentration of radioactivity, Skin: Non-pigmented: 0.465 microgram equivalents/gram
  Tissue:Blood ratio, Skin: Non-pigmented: 1.72
[1]; 5 hours
  Concentration of radioactivity, Skin: Non-pigmented: 0.189 microgram equivalents/gram
  Tissue:Blood ratio, Skin: Non-pigmented: 1.66
[1]; 8 hours
  Concentration of radioactivity, Skin: Non-pigmented: 0.361 microgram equivalents/gram
  Tissue:Blood ratio, Skin: Non-pigmented: 1.77
[1]; 24 hours
  Concentration of radioactivity, Skin: Non-pigmented: BLQ
[1]; 48 hours
  Concentration of radioactivity, Skin: Non-pigmented: BLQ
[2]; female partially pigmented rats, single oral dose, 0.5 hours
  concentration of radioactivity, liver (greatest concentration): 13.7 μg equivalents/g
[2]; [4]
  Concentration of radioactivity, Skin: Non-pigmented: 1.89 microgram equivalents/gram
  Concentration of radioactivity, Skin: Pigmented: 2.85 microgram equivalents/gram
  Tissue:Blood ratio, Skin: Non-pigmented: 0.71
  Tissue:Blood ratio, Skin: Pigmented: 1.07
  Total amount of radioactivity, Skin (non-pigmented): 1.136 % dose administered/tissue
  Total amount of radioactivity, Skin (pigmented): 1.714 % dose administered/tissue
[2]; [5]
  Concentration of radioactivity, Skin: Non-pigmented: 0.090 microgram equivalents/gram
  Concentration of radioactivity, Skin: Pigmented: 0.161 microgram equivalents/gram
  Tissue:Blood ratio, Skin: Non-pigmented: 0.56
  Tissue:Blood ratio, Skin: Pigmented: 1.01
  Total amount of radioactivity, Skin (non-pigmented): 0.059 % dose administered/tissue
  Total amount of radioactivity, Skin (pigmented): 0.099 % dose administered/tissue
[2]; [6]
  Concentration of radioactivity, Skin: Non-pigmented: BLQ
  Concentration of radioactivity, Skin: Pigmented: 0.113 microgram equivalents/gram
  Total amount of radioactivity, Skin (non-pigmented): <0.041 % dose administered/tissue
  Total amount of radioactivity, Skin (pigmented): 0.061 % dose administered/tissue
[2]; [7]
  Concentration of radioactivity, Skin: Non-pigmented: BLQ
  Concentration of radioactivity, Skin: Pigmented: BLQ
  Total amount of radioactivity, Skin (non-pigmented): <0.043 % dose administered/tissue
  Total amount of radioactivity, Skin (pigmented): <0.043 % dose administered/tissue
[2]; [8]
  Concentration of radioactivity, Skin: Non-pigmented: BLQ
  Concentration of radioactivity, Skin: Pigmented: BLQ
  Total amount of radioactivity, Skin (non-pigmented): <0.038 % dose administered/tissue
  Total amount of radioactivity, Skin (pigmented): <0.038 % dose administered/tissue
[2]; [9]
  Concentration of radioactivity, Skin: Non-pigmented: BLQ
  Concentration of radioactivity, Skin: Pigmented: BLQ
  Total amount of radioactivity, Skin (non-pigmented): <0.041 % dose administered/tissue
  Total amount of radioactivity, Skin (pigmented): <0.041 % dose administered/tissue
[2]; partially pigmented rats, single oral dose, 7 days after dosing
  concentration of radioactivity, liver: 0.410 μg equivalents/g
[2]; partially pigmented rats, single oral dose, by 24 hours
  concentration of radioactivity, majority of tissues (BLQ): < 0.076 μg equivalents/g
[2]; partially pigmented rats, single oral dose, by 7 days
  concentration of radioactivity, all analyzed tissues except liver, including uveal tract and pigmented skin: at or below the limit of quantification
[3]
  Tissue:Blood ratio, Skin: Non-pigmented: 0.99
